According to the NIST ThermoML archive (doi:10.1021/acs.jced.8b00554):

Experiment: xn = mol fraction of the nth substance listed
Settings: Liquid, Vibrating tube method

CCCCCCCC [octane] + CCCO
mass density [kg/m3]
Settings | 313.15 K | 323.15 K
100 kPa, x2 = 0.1631 | 693.18 | 684.56
100 kPa, x2 = 0.2111 | 695.76 | 687.03
100 kPa, x2 = 0.3158 | 701.99 | 693.22
100 kPa, x2 = 0.4411 | 711 | 702.44
100 kPa, x2 = 0.7301 | 740.14 | 731.25
100 kPa, x2 = 0.8823 | 763.46 | 754.72
1000 kPa, x2 = 0.1631 | 694.31 | –
1000 kPa, x2 = 0.4411 | 712.19 | –
1000 kPa, x2 = 0.8823 | – | 755.36
1010 kPa, x2 = 0.2111 | 696.95 | –
1010 kPa, x2 = 0.3158 | 703.21 | 694.15
1010 kPa, x2 = 0.4411 | – | 703
1010 kPa, x2 = 0.7301 | 741.33 | 732.1
1010 kPa, x2 = 0.8823 | 764.37 | –
1020 kPa, x2 = 0.1631 | – | 685.52
1020 kPa, x2 = 0.2111 | – | 688.02
2000 kPa, x2 = 0.4411 | – | 703.99
2000 kPa, x2 = 0.7301 | 742.25 | –
2010 kPa, x2 = 0.1631 | 695.26 | 686.54
2010 kPa, x2 = 0.2111 | 697.87 | 689.01
2010 kPa, x2 = 0.3158 | 704.14 | 695.16
2010 kPa, x2 = 0.4411 | 713.12 | –
2010 kPa, x2 = 0.7301 | – | 733.06
2010 kPa, x2 = 0.8823 | 765.24 | –
2020 kPa, x2 = 0.8823 | – | 756.3
3000 kPa, x2 = 0.2111 | 698.81 | –
3000 kPa, x2 = 0.4411 | 714.05 | 704.97
3000 kPa, x2 = 0.7301 | 743.18 | –
3010 kPa, x2 = 0.3158 | 705.04 | 696.14
3010 kPa, x2 = 0.7301 | – | 734.04
3010 kPa, x2 = 0.8823 | – | 757.26
3020 kPa, x2 = 0.1631 | 696.19 | 687.52
3020 kPa, x2 = 0.2111 | – | 690
3020 kPa, x2 = 0.8823 | 766.13 | –
4000 kPa, x2 = 0.2111 | 699.72 | –
4000 kPa, x2 = 0.4411 | 714.95 | –
4010 kPa, x2 = 0.3158 | 705.98 | –
4010 kPa, x2 = 0.7301 | 744.05 | 734.99
4010 kPa, x2 = 0.8823 | – | 758.2
4020 kPa, x2 = 0.1631 | 697.09 | 688.52
4020 kPa, x2 = 0.2111 | – | 691
4020 kPa, x2 = 0.3158 | – | 697.11
4020 kPa, x2 = 0.4411 | – | 705.97
4020 kPa, x2 = 0.8823 | 767 | –
5000 kPa, x2 = 0.1631 | 698.01 | –
5000 kPa, x2 = 0.3158 | 706.86 | –
5000 kPa, x2 = 0.8823 | 767.9 | –
5010 kPa, x2 = 0.1631 | – | 689.5
5010 kPa, x2 = 0.2111 | 700.64 | –
5010 kPa, x2 = 0.7301 | 744.95 | 735.97
5020 kPa, x2 = 0.2111 | – | 691.96
5020 kPa, x2 = 0.3158 | – | 698.1
5020 kPa, x2 = 0.4411 | 715.86 | 706.95
5020 kPa, x2 = 0.8823 | – | 759.13
6000 kPa, x2 = 0.7301 | – | 736.92
6010 kPa, x2 = 0.1631 | – | 690.43
6010 kPa, x2 = 0.2111 | 701.53 | 692.93
6010 kPa, x2 = 0.4411 | 716.76 | 707.91
6010 kPa, x2 = 0.7301 | 745.83 | –
6010 kPa, x2 = 0.8823 | 768.74 | 760.04
6020 kPa, x2 = 0.1631 | 698.89 | –
6020 kPa, x2 = 0.3158 | 707.76 | 699.06
7000 kPa, x2 = 0.1631 | – | 691.4
7000 kPa, x2 = 0.3158 | 708.66 | –
7010 kPa, x2 = 0.2111 | – | 693.87
7010 kPa, x2 = 0.4411 | – | 708.85
7010 kPa, x2 = 0.7301 | 746.74 | 737.85
7020 kPa, x2 = 0.1631 | 699.79 | –
7020 kPa, x2 = 0.2111 | 702.4 | –
7020 kPa, x2 = 0.3158 | – | 700.03
7020 kPa, x2 = 0.4411 | 717.65 | –
7020 kPa, x2 = 0.8823 | 769.63 | 760.95
8000 kPa, x2 = 0.1631 | 700.66 | 692.37
8010 kPa, x2 = 0.3158 | 709.55 | 700.95
8010 kPa, x2 = 0.4411 | 718.55 | 709.8
8010 kPa, x2 = 0.7301 | 747.6 | 738.79
8010 kPa, x2 = 0.8823 | 770.46 | 761.85
8020 kPa, x2 = 0.2111 | 703.3 | 694.84
9000 kPa, x2 = 0.3158 | 710.41 | –
9000 kPa, x2 = 0.4411 | 719.39 | –
9000 kPa, x2 = 0.7301 | 748.46 | 739.71
9010 kPa, x2 = 0.1631 | 701.54 | –
9010 kPa, x2 = 0.4411 | – | 710.74
9010 kPa, x2 = 0.8823 | – | 762.75
9020 kPa, x2 = 0.1631 | – | 693.29
9020 kPa, x2 = 0.2111 | 704.17 | 695.78
9020 kPa, x2 = 0.3158 | – | 701.92
9020 kPa, x2 = 0.8823 | 771.29 | –
10000 kPa, x2 = 0.1631 | – | 694.22
10000 kPa, x2 = 0.2111 | 705.02 | –
10000 kPa, x2 = 0.7301 | – | 740.61
10010 kPa, x2 = 0.1631 | 702.41 | –
10010 kPa, x2 = 0.2111 | – | 696.69
10010 kPa, x2 = 0.4411 | 720.29 | –
10010 kPa, x2 = 0.7301 | 749.32 | –
10020 kPa, x2 = 0.3158 | 711.31 | –
10020 kPa, x2 = 0.8823 | 772.16 | –
11000 kPa, x2 = 0.1631 | 703.29 | –
11000 kPa, x2 = 0.8823 | 772.97 | –
11010 kPa, x2 = 0.3158 | 712.17 | –
11010 kPa, x2 = 0.7301 | 750.16 | –
11020 kPa, x2 = 0.2111 | 705.91 | –
11020 kPa, x2 = 0.4411 | 721.14 | –
12010 kPa, x2 = 0.1631 | 704.11 | –
12010 kPa, x2 = 0.2111 | 706.77 | –
12010 kPa, x2 = 0.3158 | 712.99 | –
12010 kPa, x2 = 0.7301 | 751 | –
12020 kPa, x2 = 0.4411 | 722 | –
12020 kPa, x2 = 0.8823 | 773.81 | –
13000 kPa, x2 = 0.4411 | 722.85 | –
13000 kPa, x2 = 0.8823 | 774.61 | –
13010 kPa, x2 = 0.1631 | 704.97 | –
13010 kPa, x2 = 0.3158 | 713.85 | –
13010 kPa, x2 = 0.7301 | 751.83 | –
13020 kPa, x2 = 0.2111 | 707.6 | –
14010 kPa, x2 = 0.3158 | 714.67 | –
14020 kPa, x2 = 0.1631 | 705.8 | –
14020 kPa, x2 = 0.2111 | 708.41 | –
14020 kPa, x2 = 0.4411 | 723.68 | –
14020 kPa, x2 = 0.7301 | 752.64 | –
14020 kPa, x2 = 0.8823 | 775.41 | –
15000 kPa, x2 = 0.4411 | 724.48 | –
15010 kPa, x2 = 0.2111 | 709.26 | –
15010 kPa, x2 = 0.3158 | 715.49 | –
15010 kPa, x2 = 0.7301 | 753.46 | –
15010 kPa, x2 = 0.8823 | 776.2 | –
15020 kPa, x2 = 0.1631 | 706.63 | –
16000 kPa, x2 = 0.1631 | 707.41 | –
16010 kPa, x2 = 0.4411 | 725.31 | –
16010 kPa, x2 = 0.7301 | 754.27 | –
16010 kPa, x2 = 0.8823 | 776.98 | –
16020 kPa, x2 = 0.2111 | 710.08 | –
16020 kPa, x2 = 0.3158 | 716.32 | –
17000 kPa, x2 = 0.8823 | 777.78 | –
17020 kPa, x2 = 0.1631 | 708.23 | –
17020 kPa, x2 = 0.2111 | 710.85 | –
17020 kPa, x2 = 0.3158 | 717.13 | –
17020 kPa, x2 = 0.4411 | 726.11 | –
17020 kPa, x2 = 0.7301 | 755.05 | –
18000 kPa, x2 = 0.1631 | 709.02 | –
18000 kPa, x2 = 0.4411 | 726.91 | –
18010 kPa, x2 = 0.2111 | 711.64 | –
18010 kPa, x2 = 0.3158 | 717.91 | –
18010 kPa, x2 = 0.8823 | 778.53 | –
18020 kPa, x2 = 0.7301 | 755.85 | –
19000 kPa, x2 = 0.3158 | 718.69 | –
19000 kPa, x2 = 0.7301 | 756.62 | –
19010 kPa, x2 = 0.2111 | 712.43 | –
19010 kPa, x2 = 0.4411 | 727.68 | –
19010 kPa, x2 = 0.8823 | 779.29 | –
19020 kPa, x2 = 0.1631 | 709.81 | –
20000 kPa, x2 = 0.2111 | 713.22 | –
20000 kPa, x2 = 0.4411 | 728.45 | –
20010 kPa, x2 = 0.1631 | 710.59 | –
20010 kPa, x2 = 0.3158 | 719.47 | –
20010 kPa, x2 = 0.7301 | 757.39 | –
20020 kPa, x2 = 0.8823 | 780.06 | –
